Earlier results on one molecule are cited in patent US20070275929A1, “Composition and method for controlling the transmission of noroviruses” (THE DIAL CORPORATION, priority 2006, published 2007).

SMILES strings stand for the structures.

This data set has as its system norovirus. The conditions noted are these: alcohol alone.

Turning to `CCO` [alcohol], the “contact time required to reduce norovirus populations by a factor of 3” value is 30 min.
